ChEMBL document CHEMBL4184187, “Current knowledge on the nucleotide agonists for the P2Y2 receptor” (Bioorg Med Chem, 2018)

What was measured:
P2Y purinoceptor 2 [1] = biological target: T1, P2Y purinoceptor 2 (Homo sapiens, UniProt P41231); test: Agonist activity at P2Y2 receptor in NG108-15 cells (unknown origin); type: functional, cell-based
P2Y purinoceptor 2 [2] = biological target: T1, P2Y purinoceptor 2; test: Agonist activity at P2Y2 receptor in BEA cells (unknown origin); type: functional, cell-based
P2Y purinoceptor 2 [3] = biological target: T1, P2Y purinoceptor 2; test: Agonist activity at human P2Y2 receptor expressed in 1321N1 cells assessed as [3H]-inositol phosphate accumulation measured after 90 mins by anion exchange chromatographic method; type: functional, cell-based
P2Y purinoceptor 2 [4] = biological target: T1, P2Y purinoceptor 2; test: Agonist activity at P2Y2 receptor (unknown origin); type: functional
P2Y purinoceptor 1 = P2Y purinoceptor 1 (Homo sapiens, UniProt P47900); test: Antagonist activity at P2Y1 receptor (unknown origin); type: functional
Chain of P2Y purinoceptor 1 (P47900 whole entry): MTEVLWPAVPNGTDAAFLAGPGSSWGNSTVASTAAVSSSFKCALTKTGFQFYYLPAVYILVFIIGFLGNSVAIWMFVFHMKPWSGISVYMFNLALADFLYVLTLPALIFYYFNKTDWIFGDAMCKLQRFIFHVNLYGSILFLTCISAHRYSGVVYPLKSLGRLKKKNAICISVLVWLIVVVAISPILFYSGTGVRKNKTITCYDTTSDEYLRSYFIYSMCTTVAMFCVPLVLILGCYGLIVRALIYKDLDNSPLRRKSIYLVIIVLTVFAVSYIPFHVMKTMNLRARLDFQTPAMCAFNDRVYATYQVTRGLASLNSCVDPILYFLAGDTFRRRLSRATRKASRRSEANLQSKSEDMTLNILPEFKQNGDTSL

P2Y purinoceptor 2 [5] = biological target: T1, P2Y purinoceptor 2; test: Agonist activity at P2Y2 receptor in human CF/T43 cells; type: functional, cell-based

T1 sequence (P41231 whole entry): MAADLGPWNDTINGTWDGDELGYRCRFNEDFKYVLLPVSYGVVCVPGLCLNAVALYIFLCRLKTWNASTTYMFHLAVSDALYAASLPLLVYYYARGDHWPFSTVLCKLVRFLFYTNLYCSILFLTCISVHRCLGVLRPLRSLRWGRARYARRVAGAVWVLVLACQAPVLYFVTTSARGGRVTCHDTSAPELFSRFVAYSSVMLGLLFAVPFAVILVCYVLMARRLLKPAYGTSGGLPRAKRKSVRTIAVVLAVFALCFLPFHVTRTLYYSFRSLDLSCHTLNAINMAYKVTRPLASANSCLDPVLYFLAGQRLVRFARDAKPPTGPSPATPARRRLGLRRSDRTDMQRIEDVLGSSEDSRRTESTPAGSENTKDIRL

| Structure (SMILES) | EC50 (P2Y purinoceptor 2 [3]) | other results |
| --- | --- | --- |
| O=c1ccn([C@@H]2O[C@H](COP(=O)(O)OP(=O)(O)OP(=O)(O)O)[C@@H](O)[C@H]2O)c(=O)[nH]1 [URIDINE TRIPHOSPHATE] | 120 nM | EC50 (P2Y purinoceptor 2 [1]): 1250 nM; EC50 (P2Y purinoceptor 2 [2]): 160 nM |
| CCCCCCOc1ccn([C@@H]2O[C@H](COP(=O)(O)OP(=O)(O)OP(=O)(O)O)[C@@H](O)[C@H]2O)c(=O)n1 | 489000 nM | – |
| Nc1ccn([C@@H]2O[C@H](COP(=O)(O)OP(=O)(O)OP(=O)(O)O)[C@@H](O)[C@H]2O)c(=O)n1 [CYSTETINE TRIPHOSPHATE] | 37800 nM | – |
| O=c1[nH]c(=O)n([C@@H]2O[C@H](COP(=O)(O)OP(=O)(O)OP(=O)(O)O)[C@@H](O)[C@H]2O)cc1Br | – | EC50 (P2Y purinoceptor 2 [4]): 220 nM |
| CNc1ncnc2c1ncn2[C@@H]1C[C@H](COP(=O)(O)O)[C@@H](OP(=O)(O)O)C1 | – | IC50 (P2Y purinoceptor 1): 148 nM |
| Nc1ncnc2c1ncn2[C@@H]1O[C@H](COP(=O)(O)OP(=O)(O)OP(=O)(O)O)[C@@H](O)[C@H]1O [ADENOSINE TRIPHOSPHATE] | – | EC50 (P2Y purinoceptor 2 [1]): 180 nM; EC50 (P2Y purinoceptor 2 [5]): 200 nM; EC50 (P2Y purinoceptor 2 [2]): 200 nM |

More lines, in order of falling EC50 (P2Y purinoceptor 2 [3]), values ahead:

| EC50 (P2Y purinoceptor 2 [3]) | Structure (SMILES) | other results |
| --- | --- | --- |
| 29800 nM | CN(C)c1ccn([C@@H]2O[C@H](COP(=O)(O)OP(=O)(O)OP(=O)(O)O)[C@@H](O)[C@H]2O)c(=O)n1 | – |
| 26300 nM | CCCCCCNc1ccn([C@@H]2O[C@H](COP(=O)(O)OP(=O)(O)OP(=O)(O)O)[C@@H](O)[C@H]2O)c(=O)n1 | – |
| 15500 nM | COc1ccn([C@@H]2O[C@H](COP(=O)(O)OP(=O)(O)OP(=O)(O)O)[C@@H](O)[C@H]2O)c(=O)n1 | – |
| 10200 nM | O=c1nc(N2CCOCC2)ccn1[C@@H]1O[C@H](COP(=O)(O)OP(=O)(O)OP(=O)(O)O)[C@@H](O)[C@H]1O | – |
| 3100 nM | CSc1ccn([C@@H]2O[C@H](COP(=O)(O)OP(=O)(O)OP(=O)(O)O)[C@@H](O)[C@H]2O)c(=O)n1 | – |
| 840 nM | CCCCCCSc1ccn([C@@H]2O[C@H](COP(=O)(O)OP(=O)(O)OP(=O)(O)O)[C@@H](O)[C@H]2O)c(=O)n1 | – |
| 710 nM | O=c1[nH]c(=S)ccn1[C@@H]1O[C@H](COP(=O)(O)OP(=O)(O)OP(=O)(O)O)[C@@H](O)[C@H]1O | – |
| 109 nM | C#CCNC(=O)COc1ccc(CCCO/N=c2\ccn([C@@H]3O[C@H](COP(=O)(O)OP(=O)(O)OP(=O)(O)O)[C@@H](O)[C@H]3O)c(=O)[nH]2)cc1 | – |
